Reference: patent publication US20240342133A1, “TOPICAL STATIN FORMULATION FOR TREATMENT OF LICHEN SCLEROSUS AND PSORIASIS” (TBT PHARMA, INC, priority 2023, published 2024)

Assays:
[1] = system: chronic wounds; assay: Full thickness diabetic porcine wound model; type: in vivo; conditions: for increase in wound vascularity (% vascularity): versus vehicle, day 10, PD31 stain
Method: FIG. 6. Histology sections of optimal dose at day 10 show increased epithelialization and vascularization. FIG. 7. Percent vascularity at day 10 determined by PD31 stain. […] Mevastatin, simvastatin, and a combination were tested in a full thickness diabetic porcine model. FIG. 6 confirms that statins are an effective treatment of chronic wounds with a known mechanism of action. The compounds show increased epithelialization and vascularization.

[2] = system: cortisol; assay: Cortisol levels in primary human keratinocyte cultures and organotype wound healing models; type: cell-based; conditions: after treatment
Text: FIG. 4. Cortisol levels in organotype wound models after treatment with mevastatin. […] Without cholesterol, local cortisol production should drop because cholesterol is required for cortisol synthesis. This was confirmed in primary human keratinocyte cultures and organotype wound healing models after treatment with mevastatin.

[3] = system: Primary human keratinocytes; assay: Keratinocyte migration scratch test; type: cell-based; conditions: varying doses
[4] = system: MRSA; assay: MRSA load in ex-vivo wound cultures; parameters: species or system methicillin resistant staph aureus; conditions: after 24 hours
[5] = system: c-myc; assay: c-myc expression in human skin ex-vivo (chronic wound) cultures and organotype wound models; type: cell-based; conditions: samples from chronic wounds, cultured, before and after treatment; relatively short time frame
Text: FIG. 3. C-myc expression in ex-vivo cultures before and after treatment with mevastatin. […] Samples are directly from chronic wounds, cultured, and measured c-myc levels before and after treatment with mevastatin. […] A large effect of high c-myc levels is that they cause abnormal differentiation and migration of keratinocytes.

[6] = full thickness diabetic porcine model, day 10

| Structure (SMILES) | epithelialization [1, 6] | vascularization [1, 6] | increase in wound vascularity (% vascularity) [1] [fold] | local cortisol production [2] | keratinocyte migration [3] | MRSA load [4] | c-myc levels [5] |
| --- | --- | --- | --- | --- | --- | --- | --- |
| CC[C@H](C)C(=O)O[C@H]1CCC=C2C=C[C@H](C)[C@H](CC[C@@H]3C[C@@H](O)CC(=O)O3)[C@H]21 [mevastatin] | increased | increased | ~3 | drop | increasing migration levels with dose | drastic reduction | drop drastically |
| CCC(C)(C)C(=O)O[C@H]1C[C@@H](C)C=C2C=C[C@H](C)[C@H](CC[C@@H]3C[C@@H](O)CC(=O)O3)[C@H]21 [simvastatin] |  |  | ~3 |  |  |  |  |
